Test results: patent publication US8802597B2, “Herbicidal pyrimidines” (E I du Pont de Nemours and Company, priority 2003, dated 2014)
Read-outs that look alike come from different tables or passages of the source.

Legend:
Type in all cases: in vivo
[1] = test system: early watergrass (Echinochloa oryzoides); test: Test E flooded paddy water application; conditions: Flood, 21 days, scale 0 to 100 (0 no effect, 100 complete control)
How it was run: (§1)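 Weeds sown in sterilized Tama silt loam (2.6% organic matter), greenhouse 29.5/26.7° C, 16-h photoperiod; at 2.0–2.5-leaf stage pots flooded to 3 cm and compound added to paddy water. Visual rating vs untreated controls after 21 days, 0 (no effect) to 100 (complete control).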

[2] = test system: transplanted rice seedlings (Oryza sativa cv. ‘Japonica-M202’); test: Test E flooded paddy water application; conditions: Flood, 21 days, scale 0 to 100 (0 no effect, 100 complete control)
How it was run: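 Response scored visually on a 0–100 scale (100 = complete control) at 21 days against untreated pots. Treatment was into paddy water 3 cm deep over silt loam, with plants at the 2.0–2.5-leaf stage, grown under 16-h light at 29.5/26.7 °C day/night.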

[3] = test system: ducksalad (Heteranthera limosa); test: Test E flooded paddy water application; conditions: Flood, 21 days, scale 0 to 100 (0 no effect, 100 complete control)
How it was run: as §1

[4] = test system: junglerice (Echinochloa colona); test: Test E flooded paddy water application; conditions: Flood, 21 days, scale 0 to 100 (0 no effect, 100 complete control)
How it was run: as §1

[5] = test system: purple redstem (Ammannia coccinea); test: Test E flooded paddy water application; conditions: Flood, 21 days, scale 0 to 100 (0 no effect, 100 complete control)
How it was run: as §1

[6] = test system: barnyardgrass (Echinochloa crus-galli); test: Test E flooded paddy water application; conditions: Flood, 21 days, scale 0 to 100 (0 no effect, 100 complete control)
How it was run: as §1

[7] = test system: bearded (brdd.) sprangletop (Leptochloa fusca ssp. fascicularis); test: Test E flooded paddy water application; conditions: Flood, 21 days, scale 0 to 100 (0 no effect, 100 complete control)
How it was run: as §1

[8] = test system: smallflower umbrella sedge (Cyperus difformis); test: Test E flooded paddy water application; conditions: Flood, 21 days, scale 0 to 100 (0 no effect, 100 complete control)
How it was run: as §1

[9] = test system: morningglory (Ipomoea coccinea); test: Test C pre/postemergence; conditions: Ipomoea; for pest or weed control at 8 g/ha: 8 g ai/ha; for pest or weed control at 31 g/ha: 31 g ai/ha; for pest or weed control at 62 g/ha: 62 g ai/ha
How it was run: (§2)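 Visual injury ratings, 0 (no effect) to 100 (complete control), made 12 to 14 days after treatment by comparison with untreated controls. Greenhouse plants received test chemical in a surfactant-containing non-phytotoxic solvent, either preemergence on planted seeds or postemergence at the 1- to 4-leaf stage.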

[10] = test system: eastern black nightshade (Solanum ptycanthum); test: Test C pre/postemergence; conditions: Solanum, pre-emergence, Preemergence, read-out: Plant response rating, Nightshade
How it was run: as §2

[11] = test system: woolly cupgrass (Eriochloa villosa); test: Test C pre/postemergence; conditions: Eriochloa villosa; for pest or weed control at 8 g/ha: 8 g ai/ha; for pest or weed control at 16 g/ha: 16 g ai/ha; for pest or weed control at 31 g/ha: 31 g ai/ha; for pest or weed control at 62 g/ha: 62 g ai/ha
How it was run: as §2

[12] = test system: chickweed (Stellaria media); test: Test C postemergence; conditions: Stellaria media, post-emergence
How it was run: as §2

[13] = post-emergence, Postemergence, read-out: Plant response rating (scale of 0 to 100), Morningglory
[14] = pre-emergence, Preemergence, scale 0 to 100, 0 no effect, 100 complete control, read-out: Plant response rating, Morningglory
[15] = post-emergence, Postemergence, read-out: Plant response rating (scale of 0 to 100), Cupgrass, Woolly
[16] = pre-emergence, Preemergence, scale 0 to 100, 0 no effect, 100 complete control, read-out: Plant response rating, Cupgrass, Woolly

Nc1nc(-c2ccc(Br)cc2)nc(C(=O)O)c1Cl [Compound 95, 6-amino-2-(4-bromophenyl)-5-chloro-4-pyrimidinecarboxylic acid]
Watergrass, Early plant response rating ([1]; 32 g ai/ha): 0 | Watergrass, Early plant response rating ([1]; 64 g ai/ha): 0 | Watergrass, Early plant response rating ([1]; 125 g ai/ha): 0 | Watergrass, Early plant response rating ([1]; 250 g ai/ha): 0 | Plant response rating, Watergrass, Early ([1]; 16 g ai/ha): 0 | Rice, Transplanted plant response rating ([2]; 32 g ai/ha): 0 | Rice, Transplanted plant response rating ([2]; 64 g ai/ha): 0 | Rice, Transplanted plant response rating ([2]; 125 g ai/ha): 0 | Rice, Transplanted plant response rating ([2]; 250 g ai/ha): 15 | Plant response rating, Rice, Transplanted ([2]; 16 g ai/ha): 0 | Ducksalad plant response rating ([3]; 32 g ai/ha): 100 | Ducksalad plant response rating ([3]; 64 g ai/ha): 100 | Ducksalad plant response rating ([3]; 125 g ai/ha): 100 | Ducksalad plant response rating ([3]; 250 g ai/ha): 100 | Plant response rating, Ducksalad ([3]; 16 g ai/ha): 100 | Junglerice plant response rating ([4]; 32 g ai/ha): 0 | Junglerice plant response rating ([4]; 64 g ai/ha): 0 | Junglerice plant response rating ([4]; 125 g ai/ha): 0 | Junglerice plant response rating ([4]; 250 g ai/ha): 0 | Plant response rating, Junglerice ([4]; 16 g ai/ha): 0 | Redstem plant response rating ([5]; 64 g ai/ha): 30 | Redstem plant response rating ([5]; 125 g ai/ha): 70 | Redstem plant response rating ([5]; 250 g ai/ha): 80 | Plant response rating, Redstem ([5]; 16 g ai/ha): 30 | Barnyardgrass plant response rating ([6]; 32 g ai/ha): 0 | Barnyardgrass plant response rating ([6]; 64 g ai/ha): 0 | Barnyardgrass plant response rating ([6]; 125 g ai/ha): 0 | Barnyardgrass plant response rating ([6]; 250 g ai/ha): 0 | Plant response rating, Barnyardgrass ([6]; 16 g ai/ha): 0 | Sprangletop, Brdd. plant response rating ([7]; 32 g ai/ha): 0 | Sprangletop, Brdd. plant response rating ([7]; 64 g ai/ha): 0 | Sprangletop, Brdd. plant response rating ([7]; 125 g ai/ha): 0 | Sprangletop, Brdd. plant response rating ([7]; 250 g ai/ha): 0 | Plant response rating, Sprangletop, Brdd. ([7]; 16 g ai/ha): 0 | Sedge, Umbrella plant response rating ([8]; 32 g ai/ha): 95 | Sedge, Umbrella plant response rating ([8]; 64 g ai/ha): 95 | Sedge, Umbrella plant response rating ([8]; 125 g ai/ha): 95 | Sedge, Umbrella plant response rating ([8]; 250 g ai/ha): 95 | Plant response rating, Sedge, Umbrella ([8]; 16 g ai/ha): 0 | pest or weed control at 8 g/ha ([9]; post-emergence, Postemergence, scale 0 to 100, read-out: Plant response rating, Morningglory): 60% | pest or weed control at 31 g/ha [9, 13]: 80% | pest or weed control at 62 g/ha [9, 13]: 95% | pest or weed control at 8 g/ha ([9]; pre-emergence, Preemergence, scale 0 to 100 (0 no effect, 100 complete control), read-out: Plant response rating, Morningglory): 0% | pest or weed control at 16 g/ha ([9]; pre-emergence, Preemergence, 16 g ai/ha, scale 0 to 100, 0 no effect, 100 complete control, read-out: Plant response rating, Morningglory): 0% | pest or weed control at 31 g/ha [9, 14]: 10% | pest or weed control at 62 g/ha [9, 14]: 60% | pest or weed control at 8 g/ha ([10]; 8 g ai/ha, scale 0 to 100 (0 no effect, 100 complete control)): 0% | pest or weed control at 16 g/ha ([10]; 16 g ai/ha, scale 0 to 100, 0 no effect, 100 complete control): 0% | pest or weed control at 31 g/ha ([10]; 31 g ai/ha, scale 0 to 100, 0 no effect, 100 complete control): 60% | pest or weed control at 62 g/ha ([10]; 62 g ai/ha, scale 0 to 100, 0 no effect, 100 complete control): 75% | pest or weed control at 8 g/ha ([11]; post-emergence, Postemergence, scale 0 to 100, read-out: Plant response rating, Cupgrass, Woolly): 75% | pest or weed control at 16 g/ha [11, 15]: 75% | pest or weed control at 31 g/ha [11, 15]: 75% | pest or weed control at 62 g/ha [11, 15]: 80% | pest or weed control at 8 g/ha ([11]; pre-emergence, Preemergence, scale 0 to 100 (0 no effect, 100 complete control), read-out: Plant response rating, Cupgrass, Woolly): 0% | pest or weed control at 16 g/ha [11, 16]: 0% | pest or weed control at 31 g/ha [11, 16]: 0% | pest or weed control at 62 g/ha [11, 16]: 5% | pest or weed control at 8 g/ha ([12]; 8 g ai/ha, scale 0 to 100, read-out: Plant response rating, Chickweed): 95% | pest or weed control at 62 g/ha ([12]; 62 g ai/ha, read-out: Plant response rating (scale of 0 to 100), Chickweed): 95%
